Patent US7947741B2, “Use and administration of bacterial efflux pump inhibitors” (Mpex Pharmaceuticals, Inc., priority 2004, dated 2011)
Where two headings read alike, the source gives them in different places.

What was measured:
[1] = test system: P. aeruginosa PAM1020 (wt, basal level of MexAB-OprM); assay: Levofloxacin potentiation checkerboard assay (broth microdilution); assay type: cell-based, Pseudomonas aeruginosa
Procedure: (§1) Stock solutions were further diluted, according to the needs of a particular assay, in Mueller Hinton Broth (MHB). Stock solution was stored at −80° C.
(§2) The checkerboard assay was performed in microtiter plates. […] The result of these manipulations is that each well of the microtiter plate contains a unique combination of concentrations of the two agents. The assay was performed in MHB with a final bacterial inoculum of 5×10^5 CFU/ml (from an early-log phase culture). Microtiter plates were incubated during 20 h at 35° C. and were read using a microtiterplate reader (Molecular Devices) at 650 nm as well as visual observation using a microtiter plate reading mirror.
(§3) The test organisms used was PAM1020, which is a wild type strain of P. aeruginosa expressing the basal level of MexAB-OprM, as well as PAM1723, PAM1738, and PAM1753, overexpressing the MexAB-OprM, MexCD-OprJ, and MexEF-OprN pump, respectively.

[2] = test system: P. aeruginosa PAM1753 (nfxC, overexpressing MexEF-OprN); assay: as above; assay type: cell-based, Pseudomonas aeruginosa; settings: for Levofloxacin MIC in the presence of inhibitor: PAM1753
Procedure: as §1, §2, §3

[3] = test system: P. aeruginosa PAM1723 (nalB, overexpressing MexAB-OprM); assay: microbe, parasite or virus in culture; assay type: cell-based, Pseudomonas aeruginosa
Procedure: as §1, §2, §3
Efflux pump inhibitory activity of several commercially available diamidine analogs was evaluated using the checkerboard assay of Example 1 against the strain of P. aeruginosa overexpressing the MexAB-OprM efflux pump.

[4] = test system: P. aeruginosa PAM1738 (nfxB, overexpressing MexCD-OprJ); assay: microbe, parasite or virus in culture; assay type: cell-based, Pseudomonas aeruginosa
Procedure: as §1, §2, §3

[5] = test system: P. aeruginosa PAM1020 (pump status none; target mutation none); assay: microbe, parasite or virus in culture; assay type: cell-based, Pseudomonas aeruginosa; settings: PAM1020
Description: (§4) In addition to increased efflux, resistance to fluoroquinolones may be due to target mutations (gyrase and topoisimerase IV) or due to combination of these two resistance mechanisms in a single bacterial cell.

[6] = test system: P. aeruginosa PAM1032 (MexAB-OprM); assay: microbe, parasite or virus in culture; assay type: cell-based, Pseudomonas aeruginosa; settings: PAM1032
Description: as §4

[7] = test system: P. aeruginosa PAM1033 (MexCD-OprJ); assay: microbe, parasite or virus in culture; assay type: cell-based, Pseudomonas aeruginosa; settings: PAM1033
Description: as §4

[8] = test system: P. aeruginosa PAM1034 (MexEF-OprN); assay: microbe, parasite or virus in culture; assay type: cell-based, Pseudomonas aeruginosa; settings: PAM1034
Description: as §4

[9] = test system: P. aeruginosa PAM1482 (MexCD-OprJ; gyrA (Asp87Tyr)); assay: microbe, parasite or virus in culture; assay type: cell-based, Pseudomonas aeruginosa; settings: PAM1482
Description: as §4

[10] = test system: P. aeruginosa PAM1491 (MexEF-OprN; gyrA (Asp87Tyr)); assay: microbe, parasite or virus in culture; assay type: cell-based, Pseudomonas aeruginosa; settings: PAM1491
Description: as §4

[11] = test system: P. aeruginosa PAM1548 (pump status none; gyrA (Thr83Ile)); assay: microbe, parasite or virus in culture; assay type: cell-based, Pseudomonas aeruginosa; settings: PAM1548
Description: as §4

[12] = test system: P. aeruginosa PAM1569 (MexCD-OprJ; gyrA (Thr83Ile)); assay: microbe, parasite or virus in culture; assay type: cell-based, Pseudomonas aeruginosa; settings: PAM1569
Description: as §4

[13] = test system: P. aeruginosa PAM1570 (MexEF-OprN; gyrA (Thr83Ile)); assay: microbe, parasite or virus in culture; assay type: cell-based, Pseudomonas aeruginosa; settings: PAM1570
Description: as §4

[14] = molecular target: MexAB-OprM-mediated efflux of Leu-Nap, PAM1723 cells (Pseudomonas aeruginosa, UniProt P52002); assay: Leu-Nap accumulation assay; assay type: cell-based
[15] = for AUC (0-4)/AUC (0-168) / AUC (0-8)/AUC (0-168) / AUC (0-24)/AUC (0-168) / Ke (β): CF sputum, high dose, Mean; for Ke (β): β phase
[16] = test system: PAM1626 cells (lacking the efflux pump); assay: Leu-Nap accumulation assay; settings: Leu-Nap 100 μg/ml, pentamidine 0 to 80 μg/ml
Procedure: Leu-Nap, which is not fluorescent in solution, is cleaved enzymatically inside the cells to produce highly fluorescent β-naphthylamine. The more Leu-Nap enters cells, the more fluorescence is produced. The rate of production of β-naphthylamine (recorded as an increase in fluorescence) is limited by the rate of entry of Leu-Nap into the cell. To assess the uptake of Leu-Nap, cultures of P. aeruginosa were grown to OD600 ˜1, washed and re-suspended in buffer at pH 7.0 containing K2HPO4 50 mM, MgSO4 1 mM, and Glucose 0.4% (Buffer A). Assays were performed in 96-well flat bottom black plates (Applied Scientific or Costar) in a final volume of 200 μl and were initiated by addition of Leu-Nap to suspensions of intact cells to a final concentration of 100-20 μg/ml. Fluorescence was measured on a fMAX spectrofluorometer (Molecular Devices) using excitation of 320 nm and emission of 460 nm.

[17] = test system: outer membrane of P. aeruginosa strain PAM2005; assay: microbe, parasite or virus in culture; settings: Pseudomonas aeruginosa, read-out: IC50, permeabilization of the outer membrane
[18] = Pseudomonas aeruginosa, read-out: MIC* (MIC for the efflux pump inhibitor)

Chain of MexAB-OprM-mediated efflux of Leu-Nap, PAM1723 cells (Q51487 18-485): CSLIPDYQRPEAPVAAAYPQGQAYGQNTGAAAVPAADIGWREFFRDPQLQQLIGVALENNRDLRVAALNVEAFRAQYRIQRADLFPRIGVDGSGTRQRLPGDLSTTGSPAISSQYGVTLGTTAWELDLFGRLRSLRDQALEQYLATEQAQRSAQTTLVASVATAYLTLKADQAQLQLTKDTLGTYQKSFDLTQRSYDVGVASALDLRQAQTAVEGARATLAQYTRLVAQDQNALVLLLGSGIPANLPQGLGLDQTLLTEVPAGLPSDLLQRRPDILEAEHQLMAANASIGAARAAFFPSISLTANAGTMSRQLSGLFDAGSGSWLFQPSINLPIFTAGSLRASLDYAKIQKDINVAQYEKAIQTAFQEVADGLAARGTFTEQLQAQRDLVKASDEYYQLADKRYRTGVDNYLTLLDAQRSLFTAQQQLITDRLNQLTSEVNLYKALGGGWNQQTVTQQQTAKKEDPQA
Chain of MexAB-OprM-mediated efflux of Leu-Nap, PAM1723 cells (P52002 whole entry): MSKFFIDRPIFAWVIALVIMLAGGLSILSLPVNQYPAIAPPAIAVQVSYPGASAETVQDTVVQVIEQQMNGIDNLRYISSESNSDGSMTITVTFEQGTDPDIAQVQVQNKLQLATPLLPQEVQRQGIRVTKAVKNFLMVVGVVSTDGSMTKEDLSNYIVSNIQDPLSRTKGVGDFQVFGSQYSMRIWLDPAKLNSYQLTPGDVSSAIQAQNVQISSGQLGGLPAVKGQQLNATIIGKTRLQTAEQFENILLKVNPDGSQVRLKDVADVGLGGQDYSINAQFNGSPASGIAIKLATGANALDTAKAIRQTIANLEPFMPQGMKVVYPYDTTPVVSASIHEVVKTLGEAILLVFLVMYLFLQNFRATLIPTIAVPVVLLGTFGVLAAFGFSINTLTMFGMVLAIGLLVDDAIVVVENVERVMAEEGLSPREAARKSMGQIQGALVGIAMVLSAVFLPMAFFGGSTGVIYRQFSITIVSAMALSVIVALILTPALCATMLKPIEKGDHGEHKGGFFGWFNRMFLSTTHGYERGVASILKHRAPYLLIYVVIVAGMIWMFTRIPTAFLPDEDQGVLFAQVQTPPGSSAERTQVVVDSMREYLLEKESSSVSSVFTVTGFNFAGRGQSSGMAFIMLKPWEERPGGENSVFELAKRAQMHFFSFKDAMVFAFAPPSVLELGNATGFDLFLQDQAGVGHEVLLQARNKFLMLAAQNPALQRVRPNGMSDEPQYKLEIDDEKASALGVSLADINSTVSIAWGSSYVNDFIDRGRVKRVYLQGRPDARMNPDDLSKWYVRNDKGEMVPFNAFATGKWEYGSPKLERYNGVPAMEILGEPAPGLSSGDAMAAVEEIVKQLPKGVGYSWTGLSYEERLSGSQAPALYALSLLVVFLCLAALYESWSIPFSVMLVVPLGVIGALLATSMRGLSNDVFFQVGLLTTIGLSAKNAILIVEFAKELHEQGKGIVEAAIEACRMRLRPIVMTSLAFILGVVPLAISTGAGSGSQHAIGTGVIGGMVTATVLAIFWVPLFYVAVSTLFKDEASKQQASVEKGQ
Chain of MexAB-OprM-mediated efflux of Leu-Nap, PAM1723 cells (P52477 24-383, further chain): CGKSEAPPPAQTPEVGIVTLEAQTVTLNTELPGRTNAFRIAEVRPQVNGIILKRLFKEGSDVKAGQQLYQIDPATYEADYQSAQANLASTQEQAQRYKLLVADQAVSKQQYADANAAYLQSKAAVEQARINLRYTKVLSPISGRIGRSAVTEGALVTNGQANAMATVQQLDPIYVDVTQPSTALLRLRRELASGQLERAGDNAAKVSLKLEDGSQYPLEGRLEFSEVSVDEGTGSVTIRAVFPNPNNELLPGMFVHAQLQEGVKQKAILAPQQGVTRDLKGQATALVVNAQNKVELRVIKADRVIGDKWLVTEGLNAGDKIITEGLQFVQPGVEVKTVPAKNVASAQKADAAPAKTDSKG

## N=C(N)c1ccc(OCCCCCOc2ccc(C(=N)N)cc2)cc1 [Pentamidine, pentamidine]
[1]; PAM1020 (wild type), pentamidine at 20 μg/ml
  decrease of levofloxacin MIC: 8 fold
[1]; PAM1020, inhibitor 1.25 μg/ml
  Levofloxacin MIC in the presence of inhibitor: 0.25 µg/mL
[1]; PAM1020, inhibitor 2.5 μg/ml
  Levofloxacin MIC in the presence of inhibitor: 0.25 µg/mL
[1]; PAM1020, inhibitor 5 μg/ml
  Levofloxacin MIC in the presence of inhibitor: 0.125 µg/mL
[1]; PAM1020, inhibitor 10 μg/ml
  Levofloxacin MIC in the presence of inhibitor: 0.06 µg/mL
[1]; PAM1020, inhibitor 20 μg/ml
  Levofloxacin MIC in the presence of inhibitor: 0.03 µg/mL
[1]; PAM1020, inhibitor 40 μg/ml
  Levofloxacin MIC in the presence of inhibitor: 0.015 µg/mL
[1]; Pseudomonas aeruginosa, PAM1020, inhibitor alone, read-out: MIC* (MIC for the efflux pump inhibitor)
  MIC: 80 µg/mL
[2]; inhibitor 1.25 μg/ml
  Levofloxacin MIC in the presence of inhibitor: 2 µg/mL
[2]; inhibitor 2.5 μg/ml
  Levofloxacin MIC in the presence of inhibitor: 2 µg/mL
[2]; inhibitor 5 μg/ml
  Levofloxacin MIC in the presence of inhibitor: 2 µg/mL
[2]; inhibitor 10 μg/ml
  Levofloxacin MIC in the presence of inhibitor: 1 µg/mL
[2]; inhibitor 20 μg/ml
  Levofloxacin MIC in the presence of inhibitor: 0.25 µg/mL
[2]; [18]
  MIC: 40 µg/mL
[3]; PAM1723, inhibitor 1.25 μg/ml
  Levofloxacin MIC in the presence of inhibitor: 2 µg/mL
[3]; PAM1723, inhibitor 2.5 μg/ml
  Levofloxacin MIC in the presence of inhibitor: 1 µg/mL
[3]; PAM1723, inhibitor 5 μg/ml
  Levofloxacin MIC in the presence of inhibitor: 1 µg/mL
[3]; PAM1723, inhibitor 10 μg/ml
  Levofloxacin MIC in the presence of inhibitor: 0.5 µg/mL
[3]; PAM1723, inhibitor 10 μg/ml, listed as Pentamidine MP 601205
  Levofloxacin MIC in the presence of inhibitor: 1 µg/mL
[3]; PAM1723, inhibitor 20 μg/ml
  Levofloxacin MIC in the presence of inhibitor: 0.25 µg/mL
[3]; PAM1723, inhibitor 40 μg/ml
  Levofloxacin MIC in the presence of inhibitor: 0.06 µg/mL
[3]; PAM1723, inhibitor 80 μg/ml
  Levofloxacin MIC in the presence of inhibitor: 0.007 µg/mL
[3]; PAM1723, inhibitor alone, listed as Pentamidine MP 601205
  MIC* (MIC for the efflux pump inhibitor): >81 µg/mL
[3]; PAM1723, pentamidine at 20 μg/ml
  decrease of levofloxacin MIC: 8 fold
[3]; Pseudomonas aeruginosa, read-out: MIC* (MIC for the efflux pump inhibitor), PAM1723, inhibitor alone
  MIC: > 80 µg/mL
[3]; inhibitor at 10 μg/ml to 20 μg/ml
  reduction of the levofloxacin MIC of PAM1723 (2 μg/ml): at least 8 fold
[4]; PAM1738, inhibitor 1.25 μg/ml
  Levofloxacin MIC in the presence of inhibitor: 0.5 µg/mL
[4]; PAM1738, inhibitor 2.5 μg/ml
  Levofloxacin MIC in the presence of inhibitor: 0.25 µg/mL
[4]; PAM1738, inhibitor 5 μg/ml
  Levofloxacin MIC in the presence of inhibitor: 0.25 µg/mL
[4]; PAM1738, inhibitor 10 μg/ml
  Levofloxacin MIC in the presence of inhibitor: 0.25 µg/mL
[4]; PAM1738, inhibitor 20 μg/ml
  Levofloxacin MIC in the presence of inhibitor: 0.125 µg/mL
[4]; PAM1738, inhibitor 40 μg/ml
  Levofloxacin MIC in the presence of inhibitor: 0.03 µg/mL
[4]; PAM1738, inhibitor 80 μg/ml
  Levofloxacin MIC in the presence of inhibitor: 0.015 µg/mL
[4]; PAM1738, pentamidine at 20 μg/ml
  decrease of levofloxacin MIC: 4 fold
[4]; [18]
  MIC: > 80 µg/mL
[5]
  Ciprofloxacin MIC w/pentamidine at 20 μg/ml: 0.015 µg/mL
  Levofloxacin MIC w/pentamidine at 20 μg/ml: 0.03 µg/mL
[6]
  Ciprofloxacin MIC w/pentamidine at 20 μg/ml: 0.06 µg/mL
  Levofloxacin MIC w/pentamidine at 20 μg/ml: 0.125 µg/mL
[7]
  Ciprofloxacin MIC w/pentamidine at 20 μg/ml: 0.25 µg/mL
  Levofloxacin MIC w/pentamidine at 20 μg/ml: 0.25 µg/mL
[8]
  Ciprofloxacin MIC w/pentamidine at 20 μg/ml: 0.06 µg/mL
  Levofloxacin MIC w/pentamidine at 20 μg/ml: 0.125 µg/mL
[9]
  Ciprofloxacin MIC w/pentamidine at 20 μg/ml: 2 µg/mL
  Levofloxacin MIC w/pentamidine at 20 μg/ml: 1 µg/mL
[10]
  Ciprofloxacin MIC w/pentamidine at 20 μg/ml: 1 µg/mL
  Levofloxacin MIC w/pentamidine at 20 μg/ml: 2 µg/mL
[11]
  Ciprofloxacin MIC w/pentamidine at 20 μg/ml: 0.5 µg/mL
  Levofloxacin MIC w/pentamidine at 20 μg/ml: 0.25 µg/mL
[12]
  Ciprofloxacin MIC w/pentamidine at 20 μg/ml: 4 µg/mL
  Levofloxacin MIC w/pentamidine at 20 μg/ml: 4 µg/mL
[13]
  Ciprofloxacin MIC w/pentamidine at 20 μg/ml: 2 µg/mL
  Levofloxacin MIC w/pentamidine at 20 μg/ml: 2 µg/mL
[14]; Leu-Nap 100 μg/ml
  inhibitor concentration at which rate of Leu-Nap uptake in PAM1723 and PAM1626 is the same (complete inhibition of efflux): 40 µg/mL
[14]; dependence on Leu-Nap substrate concentration
  mode of inhibition: uncompetitive inhibition
[14]; external Leu-Nap 60 μg/ml, fluorescence change in 30 min
  pentamidine required for complete inhibition of the pump: 80 µg/mL
[14]; external Leu-Nap 120 μg/ml, fluorescence change in 30 min
  pentamidine required to completely inhibit MexAB-OprM-mediated efflux: 20 µg/mL
[15]; Aerogen Clinical
  AUC (0-4)/AUC (0-168): 46%
  AUC (0-8)/AUC (0-168): 61%
  AUC (0-24)/AUC (0-168): 77%
  Ke (β): 0.070 h⁻¹
[15]; Respirgard II
  AUC (0-4)/AUC (0-168): 30%
  AUC (0-8)/AUC (0-168): 41%
  AUC (0-24)/AUC (0-168): 66%
  Ke (β): 0.074 h⁻¹
[15]; human, in vivo
  AUC (0 to 168): 57000 ng·h/mL
  AUC (0 to infinity): 57000 ng·h/mL
  AUC (0 to last non-BLQ): 56000 ng·h/mL
  Tmax (0 to 168): 2.3 h
  high-dose β-phase elimination half-life (sputum): between one and two days
[16]
  effect on Leu-Nap uptake: No such increase
[17]
  IC50: > 64 µg/mL
